Measured values as given in PubChem BioAssay AID1552 (Sanford-Burnham Center for Chemical Genomics, 2009).
Calls of active or inactive are those of the source. How the calls were made is not given here.

What follows are compounds tested against Ubiquitin-conjugating enzyme E2 N (Homo sapiens) (UniProt P61088) (assay: UBE2N binders by NMR, biophysical, purified protein (AID 1552)). Settings: NMR binding to purified UBE2N.
Chain of Ubiquitin-conjugating enzyme E2 N (Homo sapiens) (P61088 whole entry, looked up): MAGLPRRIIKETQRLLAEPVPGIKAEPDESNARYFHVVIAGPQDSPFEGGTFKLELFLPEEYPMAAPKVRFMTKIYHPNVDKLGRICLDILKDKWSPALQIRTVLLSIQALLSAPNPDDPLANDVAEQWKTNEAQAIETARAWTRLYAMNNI
With `COc1cc(S(=O)(=O)Nc2cccnc2)ccc1F` the Kd was > 4 mM (inactive). `CCNC(=S)N1CCC(C(N)=O)CC1` was tested, and the Kd was > 4 mM (inactive). With `COc1cc([C@@H]2c3cc4c(c(O)c3C[C@H]3COC(=O)[C@@H]32)OCO4)cc(OC)c1OC` the Kd was > 4 mM (inactive). For `CC12CNCC(C)(CNC1)C2O` (stereo not given), the Kd was > 4 mM (inactive). For `O=C(Nc1ccccc1[N+](=O)[O-])c1ccc(=O)[nH]n1`, the Kd was > 4 mM (inactive). `CC(C)(C)c1cc(NC(=O)c2cccnc2)no1` was tested, and the Kd was > 4 mM (inactive). For `OCc1cccs1`, the Kd was > 4 mM (inactive). `NCCCCN` was tested, and the Kd was > 4 mM (inactive). In the case of `Cc1c(C(=O)O)cnn1-c1ccccc1`, the Kd is reported as > 4 mM (inactive). `CC(=O)c1c(C)nc2ccccc2c1N` was tested, and the Kd was > 4 mM (inactive). `CC(=O)Nc1ccc2c(c1)CCCC2=O` was tested, and the Kd was > 4 mM (inactive). For `CN(C)c1ccc(NC(=O)CC(C(=O)O)N(C)C)cc1` (stereo not given), the Kd was > 4 mM (inactive). For `C[C@@H]1CC[C@H]2[C@@H](C)C(=O)O[C@@H]3OC4(C)CC[C@@H]1[C@]32OO4`, the Kd was > 4 mM (inactive). In the case of `Cn1c(CNc2ccccc2)cc(=O)n(C)c1=O`, the Kd is reported as > 4 mM (inactive). In the case of `CN1CCc2c(sc(N)c2C#N)C1`, the Kd is reported as > 4 mM (inactive). For `O=C(O)CCC(=O)Nc1ccccc1F`, the Kd was > 4 mM (inactive). With `C[N+](C)(C)CC(=O)[O-]` the Kd was > 4 mM (inactive). In the case of `Nc1ccc2c(C(F)(F)F)cc(=O)oc2c1`, the Kd is reported as > 4 mM (inactive). For `O=C(O)C1CSC2(CCCCC2)N1` (stereo not given), the Kd was > 4 mM (inactive). In the case of `Nn1c(CN2CCCCC2)nc2ccccc2c1=O`, the Kd is reported as > 4 mM (inactive). With `CC(=O)c1ccc(-n2ccnc2)cc1` the Kd was > 4 mM (inactive). `CNC(=O)N1CCN(C(=O)NC)CC1` was tested, and the Kd was > 4 mM (inactive). In the case of `CC1=CC(=O)NC2C=CC=CC12` (stereo not given), the Kd is reported as > 4 mM (inactive). `Cc1cc(=O)c2c(O)cc(O)c(C)c2o1` was tested, and the Kd was > 4 mM (inactive). With `NN1C(=O)CSC1=Nc1ccccc1` the Kd was > 4 mM (inactive). For `O=C(O)CCC(=O)Nc1ccccn1`, the Kd was > 4 mM (inactive). In the case of `CC1CCN(S(=O)(=O)N(C)C)CC1`, the Kd is reported as > 4 mM (inactive). For `FC(F)(F)c1nnc2ccc(N3CCOCC3)nn12`, the Kd was > 4 mM (inactive). In the case of `CC1(C)CC[C@]2(C(=O)O)CC[C@]3(C)C(=CCC4[C@@]5(C)CC[C@H](O)[C@@](C)(CO)C5CC[C@]43C)C2C1` (stereo not given in full), the Kd is reported as > 4 mM (inactive). For `CC(=O)O[C@H]1C(=O)[C@@]2(C)C([C@H](OC(=O)c3ccccc3)[C@]3(O)C[C@H](OC(=O)[C@H](O)[C@@H](NC(=O)c4ccccc4)c4ccccc4)C(C)=C1C3(C)C)[C@]1(OC(C)=O)CO[C@@H]1C[C@@H]2O` (stereo not given in full), the Kd was > 4 mM (inactive). In the case of `NC(=O)Cc1nc(-c2ccccc2)cs1`, the Kd is reported as > 4 mM (inactive). With `CCOC(=O)C1CCN(c2ccc(C#N)cc2)CC1` the Kd was > 4 mM (inactive). In the case of `COc1ccc(-c2cc(=O)c3c(OC)c(OC)c(OC)c(OC)c3o2)cc1`, the Kd is reported as > 4 mM (inactive). For `NC(=O)CS(=O)(=O)c1ccc2ccccc2c1`, the Kd was > 4 mM (inactive). `CNC(=S)Nc1ccc(OC)cc1C` was tested, and the Kd was > 4 mM (inactive). With `CC[C@H]1CN2CCC1C[C@@H]2[C@@H](O)c1ccnc2ccc(OC)cc12` (stereo not given in full) the Kd was > 4 mM (inactive). For `CNc1nnc(Cc2csc(N)n2)s1`, the Kd was > 4 mM (inactive). With `NCc1cccc2nsnc12` the Kd was > 4 mM (inactive). For `CCCn1cnc2sc(C(N)=O)c(C)c2c1=O`, the Kd was > 4 mM (inactive). With `O=C(NCc1ccc2c(c1)OCO2)c1cccs1` the Kd was > 4 mM (inactive). `Cc1occc1C(=O)Nc1sccc1C(N)=O` was tested, and the Kd was > 4 mM (inactive). `CCN1CCN(c2ncnc3c2nnn3C)CC1` was tested, and the Kd was > 4 mM (inactive). In the case of `COc1ccc(C)cc1-n1c(-c2ccncc2)n[nH]c1=S`, the Kd is reported as > 4 mM (inactive). In the case of `COCc1cc(C)nc2sc(C(=O)OC)c(N)c12`, the Kd is reported as > 4 mM (inactive). With `Cc1cccc(-n2c(N)cc(=O)[nH]c2=S)c1` the Kd was > 4 mM (inactive). For `C=C(C)[C@@H]1CC[C@]2(CO)CC[C@]3(C)[C@H](CCC4[C@@]5(C)CC[C@H](O)C(C)(C)C5CC[C@]43C)C12` (stereo not given in full), the Kd was > 4 mM (inactive). With `Cc1cc(NC(=O)CS(=O)(=O)c2ccccc2)no1` the Kd was > 4 mM (inactive). In the case of `O=C(NCC1CCCCC1)c1ccco1`, the Kd is reported as > 4 mM (inactive). In the case of `CC12CN([N+](=O)[O-])C3(C(N)=O)CC1CCC23C` (stereo not given), the Kd is reported as > 4 mM (inactive). For `Cc1cc(C)n2nc(NCc3ccccc3)nc2n1`, the Kd was > 4 mM (inactive). For `COC(=O)C1[C@H]2C[C@H]3c4[nH]c5ccccc5c4CCN3C[C@@H]2CC[C@@H]1O` (stereo not given in full), the Kd was > 4 mM (inactive). In the case of `CC(=O)Nc1cc(O)cc(O)c1`, the Kd is reported as > 4 mM (inactive). `O=C1NC(=S)NC(=O)C1=Cc1ccncc1` was tested, and the Kd was > 4 mM (inactive). In the case of `O=C(O)c1ccc(N2CCOCC2)nc1`, the Kd is reported as > 4 mM (inactive). In the case of `O=C(Cn1cnc2ccccc2c1=O)N1CCOCC1`, the Kd is reported as > 4 mM (inactive). In the case of `C1CCN2C[C@@H]3C[C@H](CN4CCCC[C@@H]34)[C@H]2C1`, the Kd is reported as > 4 mM (inactive). For `Cc1cc2c(nn1)CCc1nonc1-2`, the Kd was > 4 mM (inactive). In the case of `CCC[C@H]1CC2=C(C[C@@H](CC)CC3=C1C(=O)OC3=O)C(=O)OC2=O`, the Kd is reported as > 4 mM (inactive). With `CN1CCC2(CC1)CC1CC3C=CC1(CN2)O3` (stereo not given) the Kd was > 4 mM (inactive). `Cc1nc2ccccc2c(=O)n1/N=C/c1ccco1` was tested, and the Kd was > 4 mM (inactive). `COc1ccc([C@@H](C)C(=O)c2ccc(O)cc2O)cc1` was tested, and the Kd was > 4 mM (inactive). `COc1ccccc1CNc1nc2nc(C)cc(=O)n2[nH]1` was tested, and the Kd was > 4 mM (inactive). For `CC(=O)CC1(O)C(=O)Nc2ccc(Br)cc21` (stereo not given), the Kd was > 4 mM (inactive). For `Cc1cc(N)no1`, the Kd was > 4 mM (inactive). In the case of `CC(=O)O[C@H]1C[C@@]2(C)[C@@H](C[C@@H](O)C3[C@]2(C)CC[C@H]2[C@H](C)[C@H](O)CC[C@]32C)/C1=C(/CCC=C(C)C)C(=O)O` (stereo not given in full), the Kd is reported as > 4 mM (inactive). With `CC(C)(C)CC(=O)NNC(=O)c1cnccn1` the Kd was > 4 mM (inactive). In the case of `Cc1cccc(C)c1NC(=O)/C=C/C(=O)O`, the Kd is reported as > 4 mM (inactive). For `CC(=O)Oc1cc(-c2coc3cc(OC(C)=O)c(OC(C)=O)c(OC(C)=O)c3c2=O)cc(OC(C)=O)c1OC(C)=O`, the Kd was > 4 mM (inactive). In the case of `O=C1NC(=O)C(=Cc2cccs2)C(=O)N1`, the Kd is reported as > 4 mM (inactive). In the case of `C=C(C)[C@@H]1[C@H]2OC(=O)[C@@H]1[C@]1(O)C[C@H]3O[C@]34C(=O)O[C@H]2[C@]14C`, the Kd is reported as > 4 mM (inactive). In the case of `COc1ccc2c(c1)OC/C(=C/c1ccc(OC)c(OC)c1)C2=O`, the Kd is reported as > 4 mM (inactive). `CCN(CC)S(=O)(=O)c1cccc2nsnc12` was tested, and the Kd was > 4 mM (inactive). `OCC(O)C(O)C(O)CO` (stereo not given) was tested, and the Kd was > 4 mM (inactive). In the case of `CC(=O)O[C@@H]1CC2C(C)(C)[C@H](O)C=C[C@]2(C)C2CC[C@]3(C)C(=CC(=O)O[C@H]3c3ccoc3)[C@@]21C` (stereo not given in full), the Kd is reported as > 4 mM (inactive). For `Cc1nc2nc(Cc3ccccc3)nn2c(C)c1Cl`, the Kd was > 4 mM (inactive). For `CN1CCC(O)N1C(=O)c1ccccc1O` (stereo not given), the Kd was > 4 mM (inactive). With `CC(=O)O[C@H]1C[C@@H](OC(C)=O)C(C)(C)C2CC(=O)[C@]3(C)C(CC[C@@]4(C)[C@H](C(=O)O)OC(=O)C5OC543)[C@]21C` (stereo not given in full) the Kd was > 4 mM (inactive). For `O=C(COc1ccccc1)N1CCc2ccccc2C1`, the Kd was > 4 mM (inactive). For `Nc1ccc(CN2CCOCC2)cc1`, the Kd was > 4 mM (inactive). `CN(C)S(=O)(=O)NCc1ccc2c(c1)OCO2` was tested, and the Kd was > 4 mM (inactive).
